Key:
[1] = Hygroscopicity (statement only); assay type: physicochemical
[2] = Solubility (statement only); assay type: physicochemical
[3] = Stability towards moisture and humidity (statement only); assay type: physicochemical
[4] = Chemical stability on storage (temperature and relative humidity)
From the text: Conditions evaluated include temperature and relative humidity (RH).

[5] = 25 ± 2° C./60 ± 5% RH, 0 months
[6] = 25 ± 2° C./60 ± 5% RH, 2 months
[7] = 25 ± 2° C./60 ± 5% RH, 3 months

Nilotinib D-malate
hygroscopicity [1]: not hygroscopic | solubility in physiologically acceptable solvents [2]: readily soluble | stability towards moisture and humidity [3]: relatively stable

Nilotinib D-tartrate
hygroscopicity [1]: not hygroscopic | stability towards moisture and humidity [3]: relatively stable | 5- methyl isomer impurity (NMT 3 ppm) ([4]; 2 to 8° C., 0 months): 0.6 ppm | Total impurities (NMT 0.4%) ([4]; 2 to 8° C., 0 months): 0.01% | XRPD ([4]; 2 to 8° C., 0 months): Form C1 | 5- methyl isomer impurity (NMT 3 ppm) ([4]; 2 to 8° C., 1 month): 0.5 ppm | XRPD ([4]; 2 to 8° C., 1 month): Stable | 5- methyl isomer impurity (NMT 3 ppm) ([4]; 2 to 8° C., 2 months): 0.7 ppm | XRPD ([4]; 2 to 8° C., 2 months): Stable | 5- methyl isomer impurity (NMT 3 ppm) ([4]; 2 to 8° C., 3 months): 1.1 ppm | Total impurities (NMT 0.4%) ([4]; 2 to 8° C., 3 months): 0.05% | XRPD ([4]; 2 to 8° C., 3 months): Stable | 5- methyl isomer impurity (NMT 3 ppm) [4, 5]: 0.6 ppm | Total impurities (NMT 0.4%) [4, 5]: 0.01% | XRPD [4, 5]: Form C1 | 5- methyl isomer impurity (NMT 3 ppm) ([4]; 25 ± 2° C./60 ± 5% RH, 1 month): 0.5 ppm | XRPD ([4]; 25 ± 2° C./60 ± 5% RH, 1 month): Stable | 5- methyl isomer impurity (NMT 3 ppm) [4, 6]: 0.7 ppm | XRPD [4, 6]: Stable | 5- methyl isomer impurity (NMT 3 ppm) [4, 7]: 1.1 ppm | Total impurities (NMT 0.4%) [4, 7]: 0.04% | XRPD [4, 7]: Stable | chemical stability / long term storage stability ([4]; temperature and relative humidity (RH)): chemically more stable

Reference: US20230075170A1, “NOVEL SALTS OF NILOTINIB AND POLYMORPHIC FORMS THEREOF” (CIPLA LIMITED, priority 2020, published 2023)
